# Assays:
# S. aureus RN4220 [pKF1] = assay: dual culture bioluminescence assay, reading after octanal addition minus initial reading; type: cell-based; conditions: E. coli/S. aureus co-culture, 5 hours at 37° C., RLU after octanal minus initial reading, FIG. 3
# Description: S. aureus RN4220 [pKF1] has a plasmid that contains only luxAB genes so bioluminescence is dependent on the addition of aldehyde substrate. Chloramphenicol resistance is used as a selective marker for plasmid maintenance.
# (§1) S. aureus RN4220 [PKF1] was grown overnight at 37° C. in Brain Heart Infusion (BHI) broth containing 10 ug/ml chloramphenicol to give approximately 1×10^9 CFU/ml. The overnight cultures were diluted to give 1×10^6 CFU/ml for E. coli and 1×10^7 CFU/ml for S. aureus and 25 μl of each organism was added to each well.
# (§2) Test compounds were serially diluted in BHI and 50 μl was added to each well of a 96 well microtitre plate.
# (§3) The plate was incubated for 5 hours at 37° C. and bioluminescence from compound treated cells was compared with non-treated cells using a luminometer (Wallac LB96B) to give bioluminescence output for E. coli (no substrate addition).
# To monitor the effect of the antibiotics on S. aureus bioluminescence 50 μl of 0.01% (v/v) octanal substrate was added to each well and bioluminescence was measured immediately after substrate addition to each individual well (Total RLU's for both E. coli and S. aureus). To obtained RLU's for S. aureus the initial RLU reading was subtracted from the reading taken immediately following substrate addition.
# E. coli JM109 [pSB311] = assay: dual culture bioluminescence assay, reading before octanal substrate addition; type: cell-based; conditions: E. coli/S. aureus co-culture, 5 hours at 37° C., FIG. 1
# Description: E. coli JM109 [pSB311] has a plasmid that contains the entire lux gene cassette (luxCDABE) from Photorhabdus luminescens. In this organism bioluminescence initiation is independent on the addition of aldehyde substrate.
# E. coli JM109 was grown overnight at 37° C. in Brain Heart Infusion (BHI) broth to give approximately 1×10^9 CFU/ml.
# as §1, §2, §3
SMILES,activity against S. aureus (in words) (S. aureus RN4220 [pKF1]),concentrations required to inhibit bioluminescence (E. coli JM109 [pSB311]; no substrate addition),potency against E. coli (comparison in words) (E. coli JM109 [pSB311]; compared with mupirocin)
C/C(=C\C(=O)OCCCCCCCCC(=O)O)C[C@@H]1OC[C@H](C[C@@H]2O[C@H]2[C@@H](C)[C@H](C)O)[C@@H](O)[C@H]1O [mupirocin],potent activity,greater than 64 μl/ml,–
CC1(C)S[C@@H]2[C@H](NC(=O)[C@H](N)c3ccc(O)cc3)C(=O)N2[C@H]1C(=O)O [Amoxicillin],potent activity,–,more potent
